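How tested: cells in 96-well plates exposed to compound for 48 hours at five concentrations. GI50 is the concentration that inhibits growth by half.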 The source made the active and inactive calls. No stated cut-off is given here; in the data, active = GI50 up to about 1.1 µM and inactive = higher.
How the values were obtained:
Assay in all cases: NCI-60 cell line screen, 48 h
[1] = system: UO-31
[2] = system: OVCAR-3
[3] = system: HOP-92
[4] = system: A549
[5] = system: K562
[6] = system: SF-539
[7] = system: SK-MEL-5
[8] = system: HCT-15
[9] = system: CAKI-1
[10] = system: SNB-19
[11] = system: SK-MEL-28
[12] = system: OVCAR-5
[13] = system: TK-10
[14] = system: MOLT-4
[15] = system: M14
[16] = system: Hs-578T
[17] = system: T47D
[18] = system: NCI/ADR-RES
[19] = system: MDA-MB-435

Compound	GI50 [1]	GI50 [2]	GI50 [3]	GI50 [4]	GI50 [5]	GI50 [6]	GI50 [7]	GI50 [8] [µM]	GI50 [9]	GI50 [10]	GI50 [11]	GI50 [12]	GI50 [13]	GI50 [14]	GI50 [15]	GI50 [16]	GI50 [17]	GI50 [18]	GI50 [19]
COc1ccc(NC(=O)C(=O)Cc2nc3ccc([N+](=O)[O-])cc3nc2O)c(OC)c1	> 100 µM (inactive)	> 100 µM (inactive)	> 100 µM (inactive)	> 100 µM (inactive)	> 100 µM (inactive)	> 100 µM (inactive)	> 100 µM (inactive)	> 100	> 100 µM (inactive)	> 100 µM (inactive)	> 100 µM (inactive)	> 100 µM (inactive)	> 100 µM (inactive)	> 100 µM (inactive)	> 100 µM (inactive)				
Cn1ccnc1CCc1ccc(Cl)c(Cl)c1	50.5 µM (inactive)	74.1 µM (inactive)	43.3 µM (inactive)	> 100 µM (inactive)	54.7 µM (inactive)	> 100 µM (inactive)	37.5 µM (inactive)	> 100	> 100 µM (inactive)		> 100 µM (inactive)	> 100 µM (inactive)	> 100 µM (inactive)	> 100 µM (inactive)	> 100 µM (inactive)				
N#CCCN(CCC#N)c1ccc(C(=O)NN)cc1	> 100 µM (inactive)	> 100 µM (inactive)	> 100 µM (inactive)	> 100 µM (inactive)	> 100 µM (inactive)	> 100 µM (inactive)	> 100 µM (inactive)	> 100	> 100 µM (inactive)	> 100 µM (inactive)	> 100 µM (inactive)	> 100 µM (inactive)	> 100 µM (inactive)	> 100 µM (inactive)	> 100 µM (inactive)				
CN(C)c1ccc(/C=C2\Oc3cc(O)ccc3C2=O)cc1	> 100 µM (inactive)	38.7 µM (inactive)		88.1 µM (inactive)	37.8 µM (inactive)	> 100 µM (inactive)	80.7 µM (inactive)	44.9	> 100 µM (inactive)	> 100 µM (inactive)	> 100 µM (inactive)		> 100 µM (inactive)	60.8 µM (inactive)	75.7 µM (inactive)	> 100 µM (inactive)	> 100 µM (inactive)	83.4 µM (inactive)	36.9 µM (inactive)
CN[C@@H](C)[C@H](NC)c1ccccc1	> 100 µM (inactive)	> 100 µM (inactive)	> 100 µM (inactive)	> 100 µM (inactive)	> 100 µM (inactive)	> 100 µM (inactive)	> 100 µM (inactive)	33.3	> 100 µM (inactive)	> 100 µM (inactive)	> 100 µM (inactive)		> 100 µM (inactive)	> 100 µM (inactive)	> 100 µM (inactive)				
CCCCCCCCCCCC(=O)OC(COC(N)=O)COc1ccc(Cl)cc1 (centres undefined)	32.9 µM (inactive)	16.3 µM (inactive)		19.1 µM (inactive)	19.2 µM (inactive)	18.8 µM (inactive)	17.6 µM (inactive)	28	21.3 µM (inactive)	33.3 µM (inactive)	20.3 µM (inactive)		30.6 µM (inactive)	23.7 µM (inactive)	20.1 µM (inactive)				
CCCCCCCCCCCC(=O)OCC1OC(n2cc(F)c(=O)[nH]c2=O)C(NC(=O)OCc2ccccc2)C(OC(=O)CCCCCCCCCCC)C1O (centres undefined)	> 100 µM (inactive)	> 100 µM (inactive)	> 100 µM (inactive)	> 100 µM (inactive)	> 100 µM (inactive)	> 100 µM (inactive)	> 100 µM (inactive)	> 100	> 100 µM (inactive)	> 100 µM (inactive)	> 100 µM (inactive)	> 100 µM (inactive)	> 100 µM (inactive)	> 100 µM (inactive)	> 100 µM (inactive)				
COC(=O)C1=C(OC(=O)/C(=C/c2c(F)cccc2F)c2ccccc2)C(C(=O)OC)[C@@]2(O)[C@@H](C(=O)OC)[C@H](C)C[C@@H]1[C@@H]2C(=O)OC (some centres undefined)	2.9 µM (inactive)	> 100 µM (inactive)		86.3 µM (inactive)	> 100 µM (inactive)	> 100 µM (inactive)		> 100	> 100 µM (inactive)	> 100 µM (inactive)	> 100 µM (inactive)	> 100 µM (inactive)	> 100 µM (inactive)	> 100 µM (inactive)	> 100 µM (inactive)		> 100 µM (inactive)	> 100 µM (inactive)	> 100 µM (inactive)
CCc1cccc(C)c1NC(=O)CC(=O)NNC(N)=S	> 100 µM (inactive)	> 100 µM (inactive)	> 100 µM (inactive)	> 100 µM (inactive)	> 100 µM (inactive)		> 100 µM (inactive)	> 100	> 100 µM (inactive)	> 100 µM (inactive)	> 100 µM (inactive)	> 100 µM (inactive)	> 100 µM (inactive)	> 100 µM (inactive)	> 100 µM (inactive)				
COc1ccc2cc(C(=O)c3ccccc3C(=O)O)ccc2c1	> 100 µM (inactive)	> 100 µM (inactive)		> 100 µM (inactive)	> 100 µM (inactive)		> 100 µM (inactive)	> 100	> 100 µM (inactive)	> 100 µM (inactive)	> 100 µM (inactive)	> 100 µM (inactive)	> 100 µM (inactive)	> 100 µM (inactive)	> 100 µM (inactive)				
CC1(C)OCC(COC(=O)NCn2cc(-c3ccccc3)nn2)O1 (centres undefined)			> 100 µM (inactive)	> 100 µM (inactive)	> 100 µM (inactive)	> 100 µM (inactive)	> 100 µM (inactive)	> 100	> 100 µM (inactive)	> 100 µM (inactive)	> 100 µM (inactive)	> 100 µM (inactive)	> 100 µM (inactive)	> 100 µM (inactive)	> 100 µM (inactive)			> 100 µM (inactive)	
CC(=O)NC1C(=O)CC(c2ccccc2)N(C)C1c1ccccc1 (centres undefined)	94.8 µM (inactive)	> 100 µM (inactive)	82.6 µM (inactive)	> 100 µM (inactive)	> 100 µM (inactive)	> 100 µM (inactive)	> 100 µM (inactive)	> 100	> 100 µM (inactive)	> 100 µM (inactive)	> 100 µM (inactive)	> 100 µM (inactive)	> 100 µM (inactive)	> 100 µM (inactive)	61 µM (inactive)				
COc1ccc([Se]c2ccc(OC)cc2)cc1	2.09 µM (inactive)	76.6 µM (inactive)	23.9 µM (inactive)	> 100 µM (inactive)	60.1 µM (inactive)	73.3 µM (inactive)	48.2 µM (inactive)	68.1	23.3 µM (inactive)	> 100 µM (inactive)	> 100 µM (inactive)		> 100 µM (inactive)	41.5 µM (inactive)	> 100 µM (inactive)				
O=C(O)c1ccccc1NC(=O)C1CCCCC1	> 100 µM (inactive)	> 100 µM (inactive)	6.08 µM (inactive)	> 100 µM (inactive)	> 100 µM (inactive)	> 100 µM (inactive)	> 100 µM (inactive)	> 100		> 100 µM (inactive)	> 100 µM (inactive)	> 100 µM (inactive)	> 100 µM (inactive)	> 100 µM (inactive)	> 100 µM (inactive)				
Cc1cccc(C(C)(C)C)c1NC(=O)C(=O)C(C(=O)/C=C\c1ccccc1)C1OC(=O)c2ccccc21 (centres undefined)	> 100 µM (inactive)	> 100 µM (inactive)	> 100 µM (inactive)	> 100 µM (inactive)	> 100 µM (inactive)	> 100 µM (inactive)	> 100 µM (inactive)	> 100	> 100 µM (inactive)	> 100 µM (inactive)	> 100 µM (inactive)	> 100 µM (inactive)	> 100 µM (inactive)	> 100 µM (inactive)	> 100 µM (inactive)				
C1=C2/CC[C@H](Sc3ccccc3)C2C2(CCCCC/1)OCCO2 (some centres undefined)		18.7 µM (inactive)	3.72 µM (inactive)		24.7 µM (inactive)	41.8 µM (inactive)				> 100 µM (inactive)	30.2 µM (inactive)		83.9 µM (inactive)	16.6 µM (inactive)					
C[C@@H]1OC2(O)[C@H]3CCCN3S(=O)(=O)CCN2C1=O (some centres undefined)	> 100 µM (inactive)	> 100 µM (inactive)	> 100 µM (inactive)	> 100 µM (inactive)	> 100 µM (inactive)	> 100 µM (inactive)	> 100 µM (inactive)	> 100	> 100 µM (inactive)	> 100 µM (inactive)	> 100 µM (inactive)	> 100 µM (inactive)	> 100 µM (inactive)	> 100 µM (inactive)	> 100 µM (inactive)				
CN(C)c1ccc(/C=C2\CNC/C(=C\c3ccc(N(C)C)cc3)C2=O)cc1	36.2 µM (inactive)	38.8 µM (inactive)	15.6 µM (inactive)	27.4 µM (inactive)	24.2 µM (inactive)	59.2 µM (inactive)	65.5 µM (inactive)	4.46			22.8 µM (inactive)	> 100 µM (inactive)	33.3 µM (inactive)	24.2 µM (inactive)	86.7 µM (inactive)				
CCN(CC)CCSc1c2ccccc2nc2cc(NCC(=O)Nc3ccccc3-c3ccccc3NC(=O)CNc3ccc4c(SCCN(CC)CC)c5ccccc5nc4c3)ccc12	> 100 µM (inactive)	> 100 µM (inactive)	> 100 µM (inactive)	> 100 µM (inactive)	24 µM (inactive)	> 100 µM (inactive)	> 100 µM (inactive)	> 100	> 100 µM (inactive)	> 100 µM (inactive)	> 100 µM (inactive)	> 100 µM (inactive)	> 100 µM (inactive)	23.2 µM (inactive)	> 100 µM (inactive)				

From ChEMBL document CHEMBL1201862, “PubChem BioAssay data set” (2004)
